According to article PMC12113998, “Exploring Multivalent Architectures for Binding and Stabilization of N-Acetylgalactosamine 6-Sulfatase” (Molecules, 2025):
Several values for one entry are separate records, joined by “and”; a condition that tells them apart may be missing. Equal values may be shown once. Read-outs that look alike come from different tables or passages of the source. Marks after values point to notes of the source that are not given here.

How the values were obtained:
[1] = 1H-NMR stability study of the acetal in D2O at pH* 4.3, 37 °C; type: physicochemical; conditions: after 19 h
Experimental: The presence of pH-sensitive acetal groups in β-D-glucose-derived dendrimers led us to question whether these compounds would remain stable under the biological conditions of the screening assay. To assess their stability under the experimental conditions, we synthesized 2-(nonyloxy)tetrahydro-2H-pyran acetal following the literature procedure as a control and conducted an NMR stability study. The NMR sample was prepared in D2O at pH* 4.3, where pH* refers to the pH measured in a D2O solution using an H2O-calibrated pH meter. […] The hydrolysis of the 2-(nonyloxy)tetrahydro-2H-pyran acetal yielded nonan-1-ol and 5-hydroxypentanal. The compound stability at pH* 4.3, assessed by ¹H-NMR experiments, is reported in the Supporting Information.

[2] = molecular target: T1, N-acetylgalactosamine-6-sulfatase (GALNS) (Homo sapiens, UniProt P34059); assay: GALNS inhibition in leukocyte homogenate from healthy donors (4-methylumbelliferyl-β-galactoside-6-sulfate substrate, fluorescence); type: biochemical; conditions: for inhibition at 1000 µM: pH 4.3, 1 mM inhibitor
T1 construct: Isolated leukocytes were disrupted by sonication; from tissue; host or cells: human leukocytes from healthy donors (sonicated homogenate)
T1 sequence (P34059 27-522): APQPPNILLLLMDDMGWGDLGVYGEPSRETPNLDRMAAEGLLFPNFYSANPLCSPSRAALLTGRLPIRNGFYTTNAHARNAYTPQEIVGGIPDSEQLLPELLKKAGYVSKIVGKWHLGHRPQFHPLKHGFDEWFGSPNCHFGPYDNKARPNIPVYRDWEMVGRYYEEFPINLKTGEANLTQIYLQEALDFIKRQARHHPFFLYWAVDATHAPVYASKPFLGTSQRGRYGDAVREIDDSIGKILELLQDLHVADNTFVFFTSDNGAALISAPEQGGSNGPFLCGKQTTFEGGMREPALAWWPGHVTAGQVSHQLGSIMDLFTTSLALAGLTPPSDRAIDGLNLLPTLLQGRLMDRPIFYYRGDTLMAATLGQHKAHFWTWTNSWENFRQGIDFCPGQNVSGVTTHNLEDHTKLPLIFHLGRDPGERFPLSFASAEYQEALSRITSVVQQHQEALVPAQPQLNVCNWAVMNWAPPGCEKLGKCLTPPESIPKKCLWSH
Experimental: A preliminary biological screening of the newly synthesized multivalent compounds at 1 mM inhibitor concentration was performed against GALNS in leukocytes isolated from healthy donors. Enzymatic assays were performed in triplicate by incubating leukocyte homogenate, compound, and substrate (4-methylumbelliferyl-β-galactoside-6-sulfate.Na) in Na-acetate/acetic acid buffer (pH 4.3) at 37 °C for 17 h, followed by the addition of β-galactosidase from Aspergillus oryzae and further incubation to release 4-methylumbelliferone. The fluorescence was measured, and the inhibition percentages were calculated relative to the control. The results are summarized in Table 1, Table 2, Table 3 and Table 4, along with new inhibition data toward GALNS of multivalent inhibitors whose synthesis was reported previously by our group (23, 26, 30, 51, 52–54). For compounds showing poor to negligible inhibitory activity, only the GALNS inhibition percentage at 1 mM was reported.
Enzymatic assays towards human GALNS in leukocytes isolated from healthy donors.
All experiments on biological materials were performed in accordance with the ethical standards of the institutional research committee and with the 1964 Helsinki Declaration and its later amendments. In keeping with ethical guidelines, all blood and cell samples were obtained for storage and analysed only after written informed consent of the patients (and/or their family members) was obtained, using a form approved by the local Ethics Committee (Assigned code: Lysolate “Late -onset Lysosomal Storage Disorders (LSDs) in the differential diagnosis of neurodegenerative diseases: development of new diagnostic procedures and focus on potential pharmacological chaperones (PCs).” Project ID code: 16774_bio, 5 May 2020, Comitato Etico Regionale per la Sperimentazione Clinica della Regione Toscana, Area Vasta Centro, Florence, Italy). Control and patient samples were anonymized and used only for research purposes.
A preliminary biological screening of compounds at 1 mM was performed towards GALNS in leukocytes isolated from healthy donors (controls). Isolated leukocytes were disrupted by sonication, and a micro BCA protein assay kit (Sigma–Aldrich) was used to determine the total protein amount for the enzymatic assay, according to the manufacturer instructions. Enzyme activity was measured by setting the reaction in 0.2 mL tubes and performing the experiments in triplicates as follows. Compound solution (3 µL), 4.29 μg/μL leukocyte homogenate 1:5 (7 μL) and 20 µL of 4-methylumbelliferyl-β-galactoside-6-sulfate.Na substrate solution (6.66mM) in Na-Acetate/acetic acid buffer (0.1 M/0.1 M, pH 4.3) containing 0.1 M NaCl, 0.02% (w/v) NaN3 and 5 mM Pb-acetate were incubated for 17 h at 37 °C. After step one, the tubes were placed on an ice cooler and the reaction was stopped by addition of 5 µL of Na-phosphate buffer (0.9 M, pH 4.3) containing 0.02 % (w/v) of NaN3 and by efficient mixing with vortex. Then, 10 µL of β-galactosidase from Aspergillus oryzae (β-Gal-A-10U) were added to each sample and samples were incubated for 2 h at 37°C. At the end of this period the tubes were placed on an ice cooler and the samples were transferred in a cooled flat –bottomed 96 well plate and the reaction was immediately stopped with 2 00 µL of NaHCO3/Na2CO3 buffer (0.5 M/0.5 M pH 10.7) containing 0.025% (w/v) of Triton X -100. Fluorescence was measured in a SpectraMax M2 microplate reader (Molecular-Devices) using a 365 nm excitation wavelength and a 435 nm emission wavelength. Percentage of GALNS inhibition was given with respect to the control (without compound).
Experiments were performed in triplicate, and the mean ± S. D. was calculated.
Figure S52. GALNS activity in the absence Figure S53. GALNS activity in the absence (Ctrl) and presence of scaffold 12 at a 1 mM (Ctrl) and presence of the new multivalent […]
The corresponding calculated inhibition of the main text) at a 1 mM concentration in […]

[3] = molecular target: T1, N-acetylgalactosamine-6-sulfatase (GALNS); design: method as in doi:10.1039/C6RA15806D; conditions: cited from earlier work
GALNS = conditions: cited from earlier work
rhGALNS = test system: rhGALNS; design: method as in PMID 31905715; conditions: preliminary studies; cited from earlier work
[4] = calculated considering 35 as the monovalent reference compound
[5] = human leukocyte extracts, pH 4.3, 37 °C, 17 h

## CCCCCCCCCOC1CCCCO1 (centres unmarked) [2-(nonyloxy)tetrahydro-2H-pyran acetal, 2-(nonyloxy)tetrahydro-2H-pyran]
[1]
  stability at pH* 4.3 by 1H-NMR: remained stable

## O=C(NC(COCc1cn(CCCCCCN2C[C@H](O)[C@H](O)[C@H]2CO)nn1)(COCc1cn(CCCCCCN2C[C@H](O)[C@H](O)[C@H]2CO)nn1)COCc1cn(CCCCCCN2C[C@H](O)[C@H](O)[C@H]2CO)nn1)c1cc(C(=O)NC(COCc2cn(CCCCCCN3C[C@H](O)[C@H](O)[C@H]3CO)nn2)(COCc2cn(CCCCCCN3C[C@H](O)[C@H](O)[C@H]3CO)nn2)COCc2cn(CCCCCCN3C[C@H](O)[C@H](O)[C@H]3CO)nn2)cc(C(=O)NC(COCc2cn(CCCCCCN3C[C@H](O)[C@H](O)[C@H]3CO)nn2)(COCc2cn(CCCCCCN3C[C@H](O)[C@H](O)[C@H]3CO)nn2)COCc2cn(CCCCCCN3C[C@H](O)[C@H](O)[C@H]3CO)nn2)c1 [Compound 2]
[2]; [4]
  rp (relative potency): 59
  rp/n (multivalent effect): 6.5 ^[d]
[2]; calculated with respect to the scaffold 38
  rp (relative potency): 0.8
[3]; 1 mM inhibitor, human leukocyte extracts
  % Inhibition (1 mM): 85 ^[a] %
[3]; human leukocyte extracts
  IC50: 85 ± 8 µM
[3]; positive MVE as previously reported
  rp/n: 6.5 and 6.5–9.2

## OC[C@@H](C[C@H]1N[C@H](CO)[C@@H](O)[C@@H]1O)OC[C@H](O)C[C@H]1N[C@H](CO)[C@@H](O)[C@@H]1O [Compound 3]
GALNS
  IC50: 0.3 µM

## C#CCOCC(COCC#C)(COCC#C)NC(=O)c1cc(C(=O)NC(COCC#C)(COCC#C)COCC#C)cc(C(=O)NC(COCC#C)(COCC#C)COCC#C)c1 [Compound 12]
[2]; [5]
  inhibition at 1000 µM: 25%

## NC(COCc1cn(CCCCCCN2C[C@@H](O)[C@H](O)[C@H]2CO)nn1)(COCc1cn(CCCCCCN2C[C@@H](O)[C@H](O)[C@H]2CO)nn1)COCc1cn(CCCCCCN2C[C@@H](O)[C@H](O)[C@H]2CO)nn1 [Compound 26]
[2]; [5]
  inhibition at 1000 µM: < 75%

## OC[C@@H]1[C@@H](O)[C@H](O)CN1CCCCCCn1cc(COCC(COCc2cn(CCCCCCN3C[C@@H](O)[C@H](O)[C@H]3CO)nn2)OCc2cn(CCCCCCN3C[C@@H](O)[C@H](O)[C@H]3CO)nn2)nn1 [Compound 28]
[2]; [5]
  inhibition at 1000 µM: < 75%

## OC[C@@H]1[C@@H](O)[C@H](O)CN1CCCCCCn1cc(COCC(COCc2cn(CCCCCCN3C[C@@H](O)[C@H](O)[C@H]3CO)nn2)(COCc2cn(CCCCCCN3C[C@@H](O)[C@H](O)[C@H]3CO)nn2)COCc2cn(CCCCCCN3C[C@@H](O)[C@H](O)[C@H]3CO)nn2)nn1 [Compound 30]
[2]; [5]
  inhibition at 1000 µM: 35%

## OCC1C(O)C(O)CN1CCCCCCn1cc(COCC(COCc2cn(CCCCCCN3CC(O)C(O)C3CO)nn2)(COCc2cn(CCCCCCN3CC(O)C(O)C3CO)nn2)COCc2cn(CCCCCCN3CC(O)C(O)C3CO)nn2)nn1 (centres unmarked) [Compound 31]
[2]; [5]
  inhibition at 1000 µM: 73%

## O=C(CCCCC(=O)NC(COCc1cn(CCCCCCN2CC(O)C(O)C2CO)nn1)(COCc1cn(CCCCCCN2CC(O)C(O)C2CO)nn1)COCc1cn(CCCCCCN2CC(O)C(O)C2CO)nn1)NC(COCc1cn(CCCCCCN2CC(O)C(O)C2CO)nn1)(COCc1cn(CCCCCCN2CC(O)C(O)C2CO)nn1)COCc1cn(CCCCCCN2CC(O)C(O)C2CO)nn1 (centres unmarked) [Compound 33]
[2]; [4]
  rp/n (multivalent effect): 2.4

## O=C(NC(COCc1cn(CCCCCCN2CCCC2)nn1)(COCc1cn(CCCCCCN2CCCC2)nn1)COCc1cn(CCCCCCN2CCCC2)nn1)c1cc(C(=O)NC(COCc2cn(CCCCCCN3CCCC3)nn2)(COCc2cn(CCCCCCN3CCCC3)nn2)COCc2cn(CCCCCCN3CCCC3)nn2)cc(C(=O)NC(COCc2cn(CCCCCCN3CCCC3)nn2)(COCc2cn(CCCCCCN3CCCC3)nn2)COCc2cn(CCCCCCN3CCCC3)nn2)c1 [Compound 38]
[2]; human leukocyte extracts
  IC50: 0.07 ± 0.015 mM

## CC(=O)OCC1OC(OCCCCCCn2cc(CO)nn2)C(OC(C)=O)C(OC(C)=O)C1OC(C)=O (centres unmarked) [Compound 48]
[2]; human leukocyte extracts, cell prints mM under a µM head
  IC50: > 1 mM
[2]; [5]
  inhibition at 1000 µM: 16%

## O=C(NC(COCc1cn(CCN2C[C@@H](O)[C@H](O)[C@H]2CO)nn1)(COCc1cn(CCN2C[C@@H](O)[C@H](O)[C@H]2CO)nn1)COCc1cn(CCN2C[C@@H](O)[C@H](O)[C@H]2CO)nn1)c1ccc([N+](=O)[O-])cc1 [Compound 51]
[2]; [5]
  inhibition at 1000 µM: 49%

## OCC1C(O)C(O)C2CC(n3cc(COCC(COCc4cn(C5CC6C(O)C(O)C(CO)N6C5)nn4)(COCc4cn(C5CC6C(O)C(O)C(CO)N6C5)nn4)COCc4cn(C5CC6C(O)C(O)C(CO)N6C5)nn4)nn3)CN12 (centres unmarked) [Compound 54]
[2]; [5]
  inhibition at 1000 µM: 9%

## CCCCCCCCN1C[C@@H](O)C(O)[C@H](O)C1 [Compound 55]
[2]; 1 mM inhibitor, human leukocyte extracts, pH 4.3, 37 °C, 17 h
  % Inhibition (1 mM): 33%

## CC(C)C[C@H]1C(=O)N2CCC[C@H]2[C@]2(O)O[C@](NC(=O)[C@@H]3C=C4c5cccc6[nH]c(Br)c(c56)C[C@H]4N(C)C3)(C(C)C)C(=O)N12 [bromocriptine]
rhGALNS
  effect on activity and thermostability of rhGALNS: increase the activity and thermostability of rhGALNS

## O=C1[C@H](CC[C@H](O)c2ccc(F)cc2)[C@@H](c2ccc(O)cc2)N1c1ccc(F)cc1 [ezetimibe]
rhGALNS
  effect on activity and thermostability of rhGALNS: increase the activity and thermostability of rhGALNS

## O=C(Nc1cccc2c(=O)cc(-c3nnn[nH]3)oc12)c1ccc(OCCCCc2ccccc2)cc1 [pranlukast]
rhGALNS
  effect on activity and thermostability of rhGALNS: increase the activity and thermostability of rhGALNS
